Measurements taken from US20140187594A1, “DIPHENYL ETHER COMPOUNDS FOR THE TREATMENT OF LIVER, LUNG DISORDERS, DIABETIC COMPLICATIONS AND CARDIOVASCULAR DISEASES” (ORCHID CHEMICALS AND PHARMACEUTICALS LTD, priority 2010, published 2014).

How the values were obtained:
3T3-L1 fibroblasts = assay: Adipogenesis in 3T3-L1 mouse fibroblast (oil red O staining); type: cell-based; settings: 1 μM or 10 μM, 7 days
Procedure: 3T3-L1 fibroblasts were seeded at a concentration of 10,000 cells/well in 24 well tissue culture plates in a total volume of 1 mL Dulbecco's Modified Eagle Medium (DMEM media) containing 10% fetal bovine serum, penicillin and streptomycin. […] After every two days, the media contents were replaced with fresh media and the drug. This process was carried out for 7 days. After 7 days of treatment, the cells were fixed in 10% formalin for 1 hour at […], stained with oil red 0 solution for 10 minutes and washed 6 times with 1×PBS to remove the excess stain. The plates were dried and visualized under 40× objective using Nikon E200 microscope and the pictures were taken by Nikon DXM 1200C digital camera.

DIO mice = assay: Insulin resistance (HOMA-IR) in diet induced obese mice; type: in vivo, C57BL/6 mice; settings: 30 mg/kg for 28 days, FIG. 22
Procedure: The animal model with obesity with insulin resistance was developed by feeding 60 Kcal % high fat diet, which simulates several features of human obesity and insulin resistance. These features were treated as mentioned below. […] C57BL/6 male mice aged 6-8 weeks, and body weight ranges between 16-22 g were used. Animals were divided into two groups. First group (n=10) was treated as a normal control fed chow feed (Nutri Labe Rodent, Tetragon Chemie Pvt. Ltd., Bangalore) and the second group (n=25) fed 60 Kcal % high fat diet (HFD) (Research Diets, New Brunswick, N.J., Cat# D12492 with blue dye) for 120 days. At the end of induction period the animals were selected based on insulin resistance for further study. […] During this period, body weight and feed intake was recorded daily. […]
(§1) The parameters like Glucose, ALT, AST, TC, TG (Clinical chemistry analyzer Erba XL 300), insulin (Linco®-CA, Product code: EZRMI-13K) and TNFα (GE Healthcare, Amersham, UK. Product code: RPN2718) were measured using commercially available kits. NEFA was measured in serum using commercially available NEFA C kit (Product code No: 279-75401, Wako pure chemical industries ltd., Japan).

HC-HF diet fed Hamsters = assay: HC-HF diet fed dyslipidemic hamsters; type: in vivo, Golden Syrian hamsters; settings: 28 days
Procedure: Dyslipidemia in hamsters were developed by feeding supranutritional diet with fructose liquid (10%) which simulates features of dyslipidemia in human. These features were treated as mentioned below. Thirty male Golden Syrian hamsters aged 14-16 weeks, body weight ranges between 100-160 g were used for this study. Animals were divided into two groups. First group (n=7) was treated as a normal control and was fed with chow feed (Nutri Lab® Rodent, Tetragon Chemie Pvt. Ltd., Bangalore) and the second group (n=23) was fed with HC-HF diet (in-house made), the composition of which were Corn oil 11.50%, Coconut oil 11.50%, Cholesterol 0.50%, Sodium cholate 0.25% and Nutri Lab® feed 76.25% and animals were provided with 10% fructose in the drinking water. […] During this period, animal body weight was recorded daily. […]
The dyslipidemic model was developed in the protocol as mentioned in experimental 4. […] During this period, animal body weight was recorded daily. […]
as §1

STZ induced diabetic rat = assay: Lenticular degeneration in STZ induced type I diabetic model; type: in vivo, Sprague Dawley rats; settings: 100 mg/kg for 2 months, FIG. 41
Procedure: The animal model was developed by injecting STZ to Sprague Dawley rats and kept for 10 weeks to develop diabetic complications. Initially animals were in hyperglycemic and chronically, developed several feature of diabetes and diabetic complications, which simulates human diabetes and complications. These features were treated as mentioned below. Forty male Sprague Dawley rats aged 6-8 weeks, body weight range between 150-190 g was used for this study. The animals were divided into two groups. First group (n=10) was treated as a normal control injected with normal saline and the second group (n=30) was treated with STZ (50 mg/kg, i.v.), (Sigma. USA). Body weight was recorded every week and blood glucose every month using glucometer (Contour TS, Bayer Healthcare Ltd.). Every week eyes were examined for cataractous changes. After 10 weeks of diabetes induction animals were grouped based on blood glucose levels and the severity of cataract. The first group served as normal control (n=10). The diabetic animals with cataract were divided into two groups, second group served as disease control (n=9) and third group was treated with compound of formula (A) (n=10) at 100 mg/kg dose for 2 months. At the last day of experiment animals were kept for 12 hours fasting, next day blood was collected, plasma separated and used for biochemical analysis. […] Data Analysis: The values are expressed as Mean±SE. […]

Question: For `COC(=O)[C@@H](N)Cc1ccc(Oc2ccc(CC3SC(=O)NC3=O)cc2)cc1` (stereo partly drawn) [Compound of formula (A), Methyl(2S)-2-amino-3-(4-{4-[(2,4-dioxo-1,3-thiazolidin-5-yl)methyl]phenoxy}phenyl)propanoate], which “adipogenesis (intracellular lipids stained with oil red O)” value (3T3-L1 fibroblasts) is on record?
Answer: did not induce adipogenesis

Question: And the HOMA-IR (DIO mice)?
Answer: improvement in HOMA-IR

Question: And the NEFA (HC-HF diet fed Hamsters; 30 and 100 mg/kg p.o., FIG. 15)?
Answer: significant reduction

Question: And the “plasma TG” value (HC-HF diet fed Hamsters; (A) 30 and 100 mg/kg, disodium salt of (C) 10 and 30 mg/kg p.o., FIGS. 14 & 29)?
Answer: significant reduction

Question: What about the lenticular degeneration (STZ induced diabetic rat) of the same molecule?
Answer: significant improvement in lenticular degeneration
